Results published in patent publication US9803187B2 (priority 2014, dated 2017).
Where two headings read alike, the source gives them in different places.

How the values were obtained:
AsbB = AsbB (Bacillus anthracis, UniProt Q81RQ8); assay: biochemical; type: biochemical
AsbA [1] = target: T1, AsbA (Bacillus anthracis, UniProt A0A0F7RJ52); assay: biochemical; type: biochemical, B. anthracis; conditions: for Ki: inhibition constant (Ki) AsbA
S. typhimurium = assay: microbe, parasite or virus in culture; type: cell-based; conditions: Salmonella enterica
S. aureus (Newman) = assay: microbe, parasite or virus in culture; type: cell-based; conditions: for IC50: Staphylococcus aureus, NEWMAN, 8 h
E. coli (MC 1061) = assay: microbe, parasite or virus in culture; type: cell-based; conditions: Escherichia coli
SbnE [2] = target: T2, SbnE (Staphylococcus aureus, UniProt Q2G1M9); assay: biochemical
T2 sequence (Q2G1M9 whole entry): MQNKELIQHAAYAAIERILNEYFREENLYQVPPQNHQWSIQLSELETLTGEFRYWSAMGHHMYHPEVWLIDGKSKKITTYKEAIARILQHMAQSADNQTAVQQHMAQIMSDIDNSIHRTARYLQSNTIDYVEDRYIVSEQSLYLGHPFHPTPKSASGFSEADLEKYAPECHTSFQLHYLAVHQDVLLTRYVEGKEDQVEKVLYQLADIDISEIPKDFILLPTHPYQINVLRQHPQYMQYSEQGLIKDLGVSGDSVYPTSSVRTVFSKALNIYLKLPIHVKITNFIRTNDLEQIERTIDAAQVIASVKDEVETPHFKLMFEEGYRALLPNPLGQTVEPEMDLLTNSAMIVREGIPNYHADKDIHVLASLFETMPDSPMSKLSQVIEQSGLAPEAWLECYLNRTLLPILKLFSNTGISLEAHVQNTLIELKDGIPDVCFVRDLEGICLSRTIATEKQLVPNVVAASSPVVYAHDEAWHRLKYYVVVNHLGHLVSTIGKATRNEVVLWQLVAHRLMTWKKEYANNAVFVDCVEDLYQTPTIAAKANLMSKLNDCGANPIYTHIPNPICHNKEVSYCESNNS

SbnE [3] = target: T2, SbnE; assay: biochemical; type: biochemical, S. aureus; conditions: for Ki: inhibition constant (Ki) SbnE
S. flexneri (BS103) = assay: microbe, parasite or virus in culture; type: cell-based; conditions: Shigella flexneri
[4] = test system: B. anthracis (Sterne 34F2); assay: microbe, parasite or virus in culture; type: cell-based; conditions: for IC50: Bacillus anthracis
AsbA [5] = target: T1, AsbA; assay: biochemical
MRSA (USA 300) = assay: microbe, parasite or virus in culture; type: cell-based, methicillin-resistant Staphylococcus aureus; conditions: Staphylococcus aureus

T1 sequence (A0A0F7RJ52 whole entry, looked up): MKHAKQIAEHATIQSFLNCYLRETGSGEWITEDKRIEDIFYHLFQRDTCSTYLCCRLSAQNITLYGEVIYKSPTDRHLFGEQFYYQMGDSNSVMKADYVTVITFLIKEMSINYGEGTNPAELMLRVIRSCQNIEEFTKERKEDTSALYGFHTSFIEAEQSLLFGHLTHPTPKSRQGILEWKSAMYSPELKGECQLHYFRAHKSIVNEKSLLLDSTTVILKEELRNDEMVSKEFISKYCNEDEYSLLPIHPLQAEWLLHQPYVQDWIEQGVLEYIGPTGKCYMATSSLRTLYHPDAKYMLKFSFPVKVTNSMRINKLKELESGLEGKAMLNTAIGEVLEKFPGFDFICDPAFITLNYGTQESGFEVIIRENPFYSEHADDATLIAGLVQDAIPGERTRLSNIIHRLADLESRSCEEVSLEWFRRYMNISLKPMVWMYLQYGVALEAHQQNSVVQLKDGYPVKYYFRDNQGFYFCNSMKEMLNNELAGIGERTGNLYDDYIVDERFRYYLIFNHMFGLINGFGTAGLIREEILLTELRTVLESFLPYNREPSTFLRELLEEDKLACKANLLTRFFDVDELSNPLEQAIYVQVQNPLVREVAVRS
AsbB, sequence (Q81RQ8 whole entry, looked up): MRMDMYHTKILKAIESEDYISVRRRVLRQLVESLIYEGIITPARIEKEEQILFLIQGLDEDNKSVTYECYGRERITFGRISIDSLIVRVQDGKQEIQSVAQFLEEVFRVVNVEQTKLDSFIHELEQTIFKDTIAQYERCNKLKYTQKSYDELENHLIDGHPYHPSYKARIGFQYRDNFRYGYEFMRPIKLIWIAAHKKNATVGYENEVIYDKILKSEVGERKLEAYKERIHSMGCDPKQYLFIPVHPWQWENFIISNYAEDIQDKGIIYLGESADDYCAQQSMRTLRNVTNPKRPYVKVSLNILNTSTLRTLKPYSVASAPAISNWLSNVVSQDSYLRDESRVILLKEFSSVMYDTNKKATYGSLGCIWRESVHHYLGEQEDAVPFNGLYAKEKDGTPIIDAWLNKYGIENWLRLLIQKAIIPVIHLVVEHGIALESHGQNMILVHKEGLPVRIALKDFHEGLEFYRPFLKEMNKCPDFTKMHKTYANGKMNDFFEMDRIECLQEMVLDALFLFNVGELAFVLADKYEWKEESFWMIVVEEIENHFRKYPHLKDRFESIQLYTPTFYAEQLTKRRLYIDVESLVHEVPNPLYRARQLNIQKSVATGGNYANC

With `CCC(=O)[C@@H](C)C[C@@H](C)C[C@@H](C)CC[C@H](O)C[C@H](O)[C@H](CC(C)C)[C@H](O)c1cc(O)cc(O)c1` [BmcA, Baulamycin A] the IC50 (AsbB) was greater than 1000 µM, the “inhibition against AsbB (in words)” value (AsbB) was “negligible” and the “mechanism of inhibition of AsbA” value (AsbA [1]) was “reversible, competitive”. It also gave a Ki (AsbA [1]; ATP) of 230 µM, a Ki (AsbA [1]; citric acid) of 110 µM and a Ki (AsbA [1]; polyamine substrate) of 170 µM. It also gave an IC50 (S. typhimurium; read-out: IC50, iron-depleted conditions) greater than 1000 µM, an IC50 (S. typhimurium; read-out: IC50, iron-rich conditions) greater than 1000 µM and an IC50 (S. typhimurium; read-out: IDM IC50) greater than 1000 µM. It also gave an IC50 (S. typhimurium; read-out: IRM IC50) greater than 1000 µM, an IC50 (S. aureus (Newman); read-out: IDM IC50) of 69 µM and an IC50 (S. aureus (Newman); read-out: IRM IC50) of 86 µM. It also gave an IC50 (E. coli (MC 1061); read-out: IDM IC50) of 4.2 µM, an IC50 (E. coli (MC 1061); read-out: IRM IC50) of 150 µM and an IC50 (SbnE [2]) of 4.8 µM. For the same compound, the “mechanism of inhibition of SbnE” value (SbnE [3]) was “reversible, competitive”, the Ki (SbnE [3]; ATP) was 680 µM and the Ki (SbnE [3]; citric acid) was 50 µM. It also gave a Ki (SbnE [3]; polyamine substrate) of 210 µM, an IC50 (S. flexneri (BS103); read-out: IDM IC50) of 20 µM and an IC50 (S. flexneri (BS103); read-out: IRM IC50) of 46 µM. The IC50 ([4]; read-out: IDM IC50) was 110 µM, the IC50 ([4]; read-out: IRM IC50) was 120 µM and the IC50 (AsbA [5]) was 180 µM. It also gave an IC50 (MRSA (USA 300); read-out: IDM IC50) of 130 µM and an IC50 (MRSA (USA 300); read-out: IRM IC50) of 130 µM.

For `CC(=O)[C@@H](C)C[C@@H](C)C[C@@H](C)CC[C@H](O)C[C@H](O)[C@H](CC(C)C)[C@H](O)c1cc(O)cc(O)c1` [BmcB, Baulamycin B], the IC50 (AsbB) was greater than 1000 µM, the “inhibition against AsbB (in words)” value (AsbB) was “negligible” and the “potency against S. aureus (Newman) compared with BmcA (in words)” value (S. aureus (Newman)) was “significantly less potent”. The IC50 (SbnE [2]) was 19 µM, the “potency against B. anthracis (Sterne 34F2) compared with BmcA (in words)” value [4] was “significantly less potent” and the IC50 (AsbA [5]) was 200 µM.
